Measurements taken from patent US20200054682A1, “METHODS AND COMPOSITIONS FOR TREATING MITOCHONDRIAL DISEASE OR DISORDERS AND HETEROPLASMY” (Imel Biotherapeutics, Inc., priority 2018, published 2020).
“Also recorded” adds a separate entry of the source.

Columns and labels:
mtDNA = mtDNA copy number by qPCR, MTS-XbaIR versus EtBr, in EPC100 cells; assay type: cell-based, human; settings: qPCR relative to Actb, EtBr 50 ng/mL, untreated cells 6189.6867
Procedure: The efficiency and efficacy of the MTS-XbaIR expression vector relative to the conventional method that employs ethidium bromide (EtBr) was evaluated according to the scheme illustrated in FIG. 2A. The placental venous endothelium-derived cell line EPC100 with DsRed labeled mitochondria were cultured in pyruvate-free DMEM (Wako cat #044-29765) with 10% fetal bovine serum (FBS) and 1% penicillin/streptomycin (P/S), and at day 0 the cells were either untreated (“normal”), transfected with the MTS-XbaIR expression vector (“MTS-XbaIR”), or treated with 50 ng/mL of EtBr. At day 1, the cells were cultured in DMEM with 10% FBS, and 1% P/S supplemented with 100 μg/mL pyruvate and 50 μg/mL uridine. […] Cells with this partial reduction of mtDNA were termed as ρ(−) cells.

NHDF recipient cells = assay: engulfment of DsRed-labeled exogenous mitochondria by FACS with rapamycin or palmitic acid; assay type: cell-based, human; settings: ρ(−) NHDF cells; rapamycin 50 ng/ml, palmitic acid 50 μM; FACS day 8
Procedure: Rapamycin was added into the culture media at the concentration of 50 ng/ml for 24 hours, and cells were exposed to glucose and essential amino acids free media without serum for 1 hour to simulate starvation. […] The ratio of phosphorylated AMPK to AMPK and phosphorylated p70 S6 kinase to p70 S6 kinase, which is a downstream target of mTORC1, were examined by using capillary electrophoresis, Wes™ (Protein Simple).
Next, we examined the effects of rapamycin and palmitic acid upon mitochondria engulfment by treating the cells with rapamycin or palmitic acid simultaneously during the mitochondria co-cultivation. A scheme of the protocol is illustrated in FIG. 6I. Briefly, the NHDF recipient cells were transfected with the MTS-XbaI expression vector and cultured with or without rapamycin, or with or without palmitic acid (PA). Puromycin selection for ρ(−) cells expressing the MTS-XbaI was performed after 48 hours. On day 6, transfer of isolated mitochondria marked with DsRed from EPC100 cells was performed. On Day8, FACS analyses were performed to detect the donor mitochondria by measuring DsRed expression in the NHDF recipient cells.

SMILES | mtDNA copy number (mtDNA) | engulfment of DsRed-labeled isolated exogenous mitochondria (NHDF recipient cells)
CC[n+]1c(-c2ccccc2)c2cc(N)ccc2c2ccc(N)cc21 [EtBr, ethidium bromide] | 5169.1258 | –
CCCCCCCCCCCCCCCC(=O)O [palmitic acid] | – | decreased; also recorded: clearly suppressed
